Data from ChEMBL document CHEMBL1201862, “PubChem BioAssay data set” (2004).
Active and inactive are the calls of the source.

Legend:
[1] = molecular target: T1, Corticotropin-releasing factor receptor 2/Corticotropin-releasing factor-binding protein (Homo sapiens, UniProt P24387+Q13324); assay: activators of CRF receptor 2 with binding protein – uHTS hits, confirmation (AID 602473); format: functional; details: read-out: EC50_Mean
T1 sequence (Q13324 whole entry): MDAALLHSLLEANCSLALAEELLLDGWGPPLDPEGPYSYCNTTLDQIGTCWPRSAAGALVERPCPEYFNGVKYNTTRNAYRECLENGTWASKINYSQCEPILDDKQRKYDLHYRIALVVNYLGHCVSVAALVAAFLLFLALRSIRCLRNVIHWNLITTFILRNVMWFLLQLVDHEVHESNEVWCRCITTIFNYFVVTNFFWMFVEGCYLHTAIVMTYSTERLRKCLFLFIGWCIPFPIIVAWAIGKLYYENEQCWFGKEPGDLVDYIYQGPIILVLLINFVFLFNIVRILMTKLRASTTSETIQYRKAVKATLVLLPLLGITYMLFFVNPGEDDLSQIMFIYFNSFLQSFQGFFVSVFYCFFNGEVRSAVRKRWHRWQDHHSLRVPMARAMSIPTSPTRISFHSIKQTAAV
T1 sequence (P24387 whole entry): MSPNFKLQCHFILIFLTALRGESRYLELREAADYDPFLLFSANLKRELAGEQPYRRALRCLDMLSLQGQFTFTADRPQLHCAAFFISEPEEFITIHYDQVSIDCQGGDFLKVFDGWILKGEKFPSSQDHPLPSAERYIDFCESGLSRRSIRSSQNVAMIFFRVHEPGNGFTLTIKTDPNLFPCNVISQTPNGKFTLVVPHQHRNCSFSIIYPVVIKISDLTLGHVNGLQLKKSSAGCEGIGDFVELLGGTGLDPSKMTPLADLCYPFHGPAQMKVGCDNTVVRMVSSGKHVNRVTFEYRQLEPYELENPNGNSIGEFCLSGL

[2] = blockers of CRF-binding protein–CRF-R2 complex – cell-based, uHTS hits, 384-well, dose response (AID 651639); format: functional, Homo sapiens; details: read-out: IC50_Mean
[3] = molecular target: T1, Corticotropin-releasing factor receptor 2/Corticotropin-releasing factor-binding protein; assay: Dose Response confirmation of uHTS hits for small molecule antagonists of the CRF-binding protein and CRF-R2 receptor complex.; format: functional; details: read-out: IC50_Mean
[4] = molecular target: T2, Probable nicotinate-nucleotide adenylyltransferase (Staphylococcus aureus (strain N315), UniProt P65502); format: functional, Staphylococcus aureus subsp. aureus N315;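 for IC50 Mean: confirmatory dose-response retesting of NadD inhibitor hits first found in an ultra-high-throughput screen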
[5] = molecular target: T2, Probable nicotinate-nucleotide adenylyltransferase; format: functional, Staphylococcus aureus subsp. aureus N315; details: read-out: IC50_Mean
[6] = molecular target: T3, Orexin/Hypocretin receptor type 1 (Homo sapiens, UniProt O43613); assay: Homogeneous Time Resolved Fluorescence (HTRF)-based cell-based high throughput dose response assay for antagonists of the orexin 1 receptor (OX1R; HCRTR1). [Related pubchem assays (depositor defined):AID434989, AID435008, AID463079, AID485270, AID492963, AID492964, AID492965, AID493232, AID504717, AID504718]; format: functional
T3 sequence (O43613 whole entry): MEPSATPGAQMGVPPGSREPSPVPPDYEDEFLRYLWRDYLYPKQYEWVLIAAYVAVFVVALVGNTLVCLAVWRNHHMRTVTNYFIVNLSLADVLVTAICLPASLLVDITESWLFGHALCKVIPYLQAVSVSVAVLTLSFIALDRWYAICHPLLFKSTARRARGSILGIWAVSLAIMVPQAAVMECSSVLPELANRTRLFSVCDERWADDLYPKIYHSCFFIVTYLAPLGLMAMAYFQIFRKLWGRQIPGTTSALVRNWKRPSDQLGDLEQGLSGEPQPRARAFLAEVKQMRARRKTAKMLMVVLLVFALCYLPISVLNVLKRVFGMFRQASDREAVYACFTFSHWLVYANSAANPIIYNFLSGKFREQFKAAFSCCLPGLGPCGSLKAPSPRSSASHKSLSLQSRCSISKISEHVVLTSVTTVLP

Orexin receptor type 2 [7] = molecular target: T4, Orexin receptor type 2 (Homo sapiens, UniProt O43614); assay: Counterscreen assay for antagonists of the orexin 1 receptor (OX1R; HCRTR1): Homogeneous Time Resolved Fluorescence (HTRF)-based cell-based dose response assay for antagonists of the orexin 2 receptor (OX2R; HCRTR2), run by assay provider.; format: functional
T4 sequence (O43614 whole entry): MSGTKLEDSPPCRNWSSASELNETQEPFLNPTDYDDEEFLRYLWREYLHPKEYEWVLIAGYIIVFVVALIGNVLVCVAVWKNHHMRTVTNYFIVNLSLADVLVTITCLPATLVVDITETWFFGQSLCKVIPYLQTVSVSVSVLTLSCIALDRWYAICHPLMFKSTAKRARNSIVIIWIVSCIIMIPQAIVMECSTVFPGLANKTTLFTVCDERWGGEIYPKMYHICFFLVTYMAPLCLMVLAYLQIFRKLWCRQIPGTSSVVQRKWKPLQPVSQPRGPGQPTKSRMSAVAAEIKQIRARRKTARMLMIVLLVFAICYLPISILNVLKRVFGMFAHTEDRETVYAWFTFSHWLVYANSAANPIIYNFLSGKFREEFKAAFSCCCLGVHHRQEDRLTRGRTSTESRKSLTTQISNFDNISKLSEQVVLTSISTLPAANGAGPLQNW

CHO-K1 = assay: (§1) Counterscreen for antagonists of the orexin 1 receptor (OX1R; HCRTR1): Homogeneous time resolved fluorescence (HTRF)-based cell-based dose response assay to identify antagonists of the parental CHO-K1 cell line. [Related pubchem assays (depositor defined):AID434989, AID435008, AID463079, AID485270, AID492963, AID492964, AID492965, AID493232, AID504699, AID504701]; format: functional; details: Cricetulus griseus
[8] = molecular target: T5, Oxysterols receptor LXR-beta (Homo sapiens, UniProt P55055); assay: LXR agonists, Gal4 luciferase reporter, dose response, counter-screen for ssDAF-12 agonist project, cell-based, luminescence, HEK293, S. stercoralis campaign (AID 720737); format: functional; details: read-out: IC50 (the source's name)
T5 sequence (P55055 whole entry): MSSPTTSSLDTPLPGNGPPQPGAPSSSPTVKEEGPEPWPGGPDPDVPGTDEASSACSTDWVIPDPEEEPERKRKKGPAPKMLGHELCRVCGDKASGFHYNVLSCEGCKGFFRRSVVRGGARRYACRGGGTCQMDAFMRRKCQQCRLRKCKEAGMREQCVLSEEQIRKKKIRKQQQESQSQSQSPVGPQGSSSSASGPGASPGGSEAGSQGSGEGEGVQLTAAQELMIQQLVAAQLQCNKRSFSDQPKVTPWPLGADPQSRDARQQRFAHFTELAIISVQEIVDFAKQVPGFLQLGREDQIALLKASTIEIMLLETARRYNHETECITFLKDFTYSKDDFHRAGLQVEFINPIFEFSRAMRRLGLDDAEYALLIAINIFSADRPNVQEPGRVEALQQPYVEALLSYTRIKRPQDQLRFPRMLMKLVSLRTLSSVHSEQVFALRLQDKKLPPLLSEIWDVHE

[9] = as §1, with “Fluorescence-based” for “Homogeneous time resolved fluorescence (HTRF)-based”, “cell-based high throughput” for “cell-based”, “CHO” for “CHO-K1”; format: functional
[10] = Luminescence-based cell-based high throughput dose response assay to identify activators of the DAF-12 from the parasite S. stercoralis (ssDAF-12).; format: functional
Orexin receptor type 2 [11] = molecular target: T4, Orexin receptor type 2; assay: Counterscreen assay for antagonists of the orexin 1 receptor (OX1R; HCRTR1): Fluorescence-based cell-based dose response assay for antagonists of the orexin 2 receptor (OX2R; HCRTR2), run by assay provider.; format: functional
[12] = molecular target: T3, Orexin/Hypocretin receptor type 1; assay: Fluorescence-based cell-based high throughput dose response assay for antagonists of the orexin 1 receptor (OX1R; HCRTR1). [Related pubchem assays (depositor defined):AID434989, AID435008, AID463079, AID485270, AID492963, AID492964, AID492965, AID493232, AID504717, AID504718]; format: functional
Protein Wnt-3a = Protein Wnt-3a (Mus musculus, UniProt P27467); assay: antagonism of Wnt3a pathway luciferase reporter – Wnt-LIGHT cells, luminescence, selectivity assay for Gli-SUFU antagonist project, dose response (AID 651570); format: functional; details: read-out: IC50_Mean;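 note: Wnt-LIGHT reporter cells stimulated with conditioned medium from Wnt3a-producing cells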
[13] = non-specific 3'UTR reporter inhibition in Clone20-Shn3RL – cell-based, Renilla luciferase, cherry-picked, counter-screen for Shn3 inhibitor project, dose response (AID 624133); format: functional
[14] = reduction of Shn3 3'UTR-driven luciferase in osteoblasts – cell-based, Clone20 osteoblasts, firefly luciferase, cherry-picked, dose response (AID 624132); format: functional;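 note: firefly luciferase luminescence from reporter carrying the Shn3 3'UTR in osteoblasts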
[15] = molecular target: T6, Replicative DNA helicase DnaB (Mycobacterium tuberculosis, UniProt P9WMR3); assay: DnaB intein splicing inhibitors, dose response, biochemical, cell-free fluorescence (AID 449749); format: functional
T6 sequence (P9WMR3 whole entry): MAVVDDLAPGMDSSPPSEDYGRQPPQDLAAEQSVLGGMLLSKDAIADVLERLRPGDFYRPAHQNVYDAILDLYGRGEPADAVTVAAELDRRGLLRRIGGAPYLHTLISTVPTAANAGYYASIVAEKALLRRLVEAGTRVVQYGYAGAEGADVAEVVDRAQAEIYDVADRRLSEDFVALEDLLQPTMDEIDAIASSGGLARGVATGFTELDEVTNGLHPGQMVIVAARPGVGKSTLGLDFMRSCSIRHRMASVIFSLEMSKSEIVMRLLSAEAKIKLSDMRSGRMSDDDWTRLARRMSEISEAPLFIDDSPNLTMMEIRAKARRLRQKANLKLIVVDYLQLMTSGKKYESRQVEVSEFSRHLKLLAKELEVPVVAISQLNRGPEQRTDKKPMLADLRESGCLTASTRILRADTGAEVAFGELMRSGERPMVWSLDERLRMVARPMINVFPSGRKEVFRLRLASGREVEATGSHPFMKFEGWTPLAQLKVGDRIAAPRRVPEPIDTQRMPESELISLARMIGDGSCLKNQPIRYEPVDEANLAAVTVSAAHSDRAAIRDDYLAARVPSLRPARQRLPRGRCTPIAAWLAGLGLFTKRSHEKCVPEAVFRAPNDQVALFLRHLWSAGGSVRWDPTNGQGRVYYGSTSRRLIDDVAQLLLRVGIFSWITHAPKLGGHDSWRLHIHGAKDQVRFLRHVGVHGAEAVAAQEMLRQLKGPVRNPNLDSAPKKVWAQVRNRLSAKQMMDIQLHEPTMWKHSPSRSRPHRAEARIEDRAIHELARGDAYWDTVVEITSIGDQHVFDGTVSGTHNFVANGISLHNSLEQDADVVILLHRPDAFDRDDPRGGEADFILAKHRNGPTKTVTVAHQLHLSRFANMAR

Protein RecA = molecular target: T7, Protein RecA (Mycobacterium tuberculosis, UniProt P9WHJ3); assay: Fluorescence Cell-Free Homogeneous Dose Retest to Identify Inhibitors of RecA-Intein Splicing Activity. [Related pubchem assays (depositor defined):AID2097, AID2223, AID489010, AID492950]; format: functional
T7 sequence (P9WHJ3 whole entry): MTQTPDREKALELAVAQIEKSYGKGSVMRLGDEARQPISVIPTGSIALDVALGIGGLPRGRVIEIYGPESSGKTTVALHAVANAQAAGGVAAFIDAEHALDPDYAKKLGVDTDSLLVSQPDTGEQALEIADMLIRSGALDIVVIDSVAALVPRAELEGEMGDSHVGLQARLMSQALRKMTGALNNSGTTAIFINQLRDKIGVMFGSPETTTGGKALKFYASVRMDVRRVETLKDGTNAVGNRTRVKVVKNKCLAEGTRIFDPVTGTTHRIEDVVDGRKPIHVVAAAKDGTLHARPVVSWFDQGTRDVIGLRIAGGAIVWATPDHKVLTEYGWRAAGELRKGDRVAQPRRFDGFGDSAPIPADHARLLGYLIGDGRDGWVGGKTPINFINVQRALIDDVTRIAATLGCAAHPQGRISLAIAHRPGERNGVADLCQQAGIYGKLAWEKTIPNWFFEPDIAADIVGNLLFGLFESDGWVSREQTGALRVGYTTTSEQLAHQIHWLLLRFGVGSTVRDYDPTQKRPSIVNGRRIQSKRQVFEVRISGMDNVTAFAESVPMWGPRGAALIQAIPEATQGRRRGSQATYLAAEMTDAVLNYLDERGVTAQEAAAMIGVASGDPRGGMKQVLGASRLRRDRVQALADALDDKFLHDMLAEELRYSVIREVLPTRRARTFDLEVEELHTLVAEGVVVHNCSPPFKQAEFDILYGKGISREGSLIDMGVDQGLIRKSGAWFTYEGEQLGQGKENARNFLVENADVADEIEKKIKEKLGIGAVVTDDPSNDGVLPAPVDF

[16] = Vero cell cytotoxicity, cytotoxicity control for M. tuberculosis inhibitor project, purified and synthesized samples, set 3 (AID 504684); format: functional
[17] = A Cell Based Secondary Assay to Explore Cytotoxicity in THP-1 Cells of Compounds that Modulate Mycobacterium tuberculosis in Media Containing Glycerol versus Media without Glycerol (2).; format: functional

T2 sequence (P65502 whole entry): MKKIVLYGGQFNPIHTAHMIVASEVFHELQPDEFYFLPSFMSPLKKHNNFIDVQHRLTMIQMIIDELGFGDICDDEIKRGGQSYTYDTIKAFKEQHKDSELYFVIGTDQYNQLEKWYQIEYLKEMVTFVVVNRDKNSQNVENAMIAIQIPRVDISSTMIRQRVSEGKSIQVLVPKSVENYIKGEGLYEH
Protein Wnt-3a, sequence (P27467 whole entry): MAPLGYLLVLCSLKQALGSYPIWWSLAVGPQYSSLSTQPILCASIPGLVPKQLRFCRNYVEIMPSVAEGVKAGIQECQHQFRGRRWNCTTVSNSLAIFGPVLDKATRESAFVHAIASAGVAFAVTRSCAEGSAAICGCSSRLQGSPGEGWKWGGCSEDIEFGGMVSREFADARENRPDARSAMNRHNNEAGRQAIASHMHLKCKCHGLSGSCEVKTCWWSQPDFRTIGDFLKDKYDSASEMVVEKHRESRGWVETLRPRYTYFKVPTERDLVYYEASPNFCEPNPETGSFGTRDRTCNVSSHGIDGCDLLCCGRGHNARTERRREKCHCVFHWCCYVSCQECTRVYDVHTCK

COC(=O)CSC1=C(C#N)C(c2ccc(Cl)cc2)C(C(=O)OC)C(=O)N1 (centres undefined)
EC50 [1]: > 53 µM (inactive)
IC50 [2]: 13.4 µM (active)
IC50 [3]: 24 µM (active)

NC(CSC1(c2ccc(Cl)cc2)c2ccccc2-c2ccccc21)C(=O)O (centres undefined)
IC50 [4]: 11.7 µM (active)
IC50 [5]: 34.2 µM (active)

O=C(NC(=S)Nc1c(Cl)ccc2nsnc12)c1ccccc1F
EC50 [1]: > 53 µM (inactive)
IC50 [2]: > 20 µM (inactive)
IC50 [3]: 2.88 µM (active)

Cc1ccc(NC(=O)c2ccc3ccccc3n2)nc1
IC50 [6]: 1.64 µM (active)
IC50 (Orexin receptor type 2 [7]): 2.35 µM (active)
IC50 (CHO-K1): > 66.2 µM (inactive)
EC50 [8]: > 67.5 µM (inactive)
IC50 [9]: > 49.7 µM (inactive)
IC50 [10]: > 67.5 µM (inactive)
IC50 (Orexin receptor type 2 [11]): > 88.8 µM (inactive)
IC50 [12]: 10.4 µM (inactive)

C=CCOc1nc2c(c(=O)n(C)c(=O)n2C)n1Cc1ccc(Cl)cc1
IC50 (Protein Wnt-3a): 1.88 µM (active)
AC50 [13]: 2.02 µM (active)
AC50 [14]: 1.03 µM (active)

COc1ccc(-c2nn3c(-c4ccccc4)nnc3s2)cc1
IC50 [6]: 2.44 µM (active)
IC50 (Orexin receptor type 2 [7]): > 50 µM (inactive)
IC50 (CHO-K1): > 66.2 µM (inactive)
IC50 [9]: > 49.8 µM (inactive)
IC50 (Orexin receptor type 2 [11]): > 88.8 µM (inactive)
IC50 [12]: > 5.53 µM (active)

O=C1C(Br)=Cc2cccc3cccc1c23
AC50 [15]: > 380 µM (inactive)
EC50 (Protein RecA): 0.581 µM (active)
CC50 [16]: 74.6 µM (active)
CC50 [17]: > 100 µM (active)
